Experimental data as given in US10183055B2, “Ang-(1-7) derivative oligopeptides for the treatment of pain and other indications” (ARIZONA BOARD OF REGENTS ON BEHALF OF THE UNIVERSITY OF …, priority 2014, dated 2019).
Where two headings read alike, the source gives them in different places. Values belong to the compound of their own block, whether it stands above or below them. Residues, ends and D or L forms follow the SMILES beside them. *: point of attachment. X2 = OC[C@H]1O[C@@H](O[C@H]2[C@H](O)[C@@H](O)[C@H](*)O[C@@H]2CO)[C@H](O)[C@@H](O)[C@H]1O; X1 = OC[C@H]1OC(*)[C@H](O)[C@@H](O)[C@@H]1O

Assays:
[1] = In Vitro Serum Half-Life Assay; conditions: mouse
Experimental: (§1) Aliquots were withdrawn at the indicated time intervals and the peptide concentration was determined using HPLC-MS and expressed as a percentage of the initial concentration.

[2] = system: naïve mice; experiment: Rotarod performance test; assay type: in vivo; conditions: spinal 0.3 pmol/5 μL or systemic 0.058 and 10 μg/kg
Experimental: Rotarod: A rotarod performance test was used to determine the motor and/or sedative effects of Ang-(1-7) (Rotamex 4/8, Columbus Instruments, Columbus, Ohio, USA). Three days prior to testing, naïve mice were subjected to 5 trials in which they were able to acclimate to the rotating rod (10 revolutions/min). On the day of testing, animals were allowed one trial and then baselined. The amount of time the animal remained on the rod was recorded, with a cutoff time of 120 seconds to prevent exhaustion. Animals were dosed (i.p.) as previously described and reevaluated 15, 30, 60, and 120 minutes post-administration.
To exclude the possibility that Ang-(1-7) administration reduced mobility in order to increase tail withdraw latency, rotarod testing was performed. Naïve animals were trained to walk on a rotating rod for 2 min. After training, animals were injected with Ang-(1-7) by either spinal (0.3 pmol/5 μL) or systemic routes (0.058 and 10 μg/kg).

[3] = system: BALB/cAnNHsd mice with intramedullary 66.1 cells (CIBP); experiment: Established CIBP, acute behavioral testing (flinching/guarding); assay type: in vivo; conditions: for pain behaviors, AT1 or AT2 antagonist administered alone: 0.4 mg/kg i.p.
Experimental: Animals: Female BALB/cAnNHsd mice (Harlan, Ind., USA) between 15 and 20 g were used in this study. Mice were housed in a climate control room on a 12-hour light/dark cycle and allowed food and water ad libitum. Animals were monitored on days 0, 7, 10, and 14 of the study for clinical signs of rapid weight loss and signs of distress.
All intraperitoneal (i.p.) injections were made at a volume of 10 mL/kg.
Arthrotomy—Intramedullary Implantation of 66.1 Cells: To induce CIBP, an arthrotomy was performed. Briefly, animals were anesthetized with 80 mg/kg ketamine-12 mg/kg xylazine (in a 10 mL/kg volume). The surgical area was shaved and cleaned with 70% ethanol and betadine. The condyles of the right femur were exposed and a burr-hole (0.66 mm) was drilled to create a space for the 66.1 cell inoculation. A 5 μl volume of 66.1 cells (8,000 cells per 1 μl) in MEM (or 5 μl MEM without cells in sham animals) was injected into the intramedullary space of the mouse femora. Proper placement of the injector was confirmed by radiograph (Faxitron X-ray imaging). Holes were sealed with bone cement and the patella reset. Muscle and skin were closed in separate layers with 5-0 vicryl suture and wound autoclips, respectively. Animals were given 8 mg/kg (10 mL/kg volume) gentamicin to prevent infection. Staples were removed 7 days post-surgery.
Acute Behavioral Testing: Fourteen days post-surgery, baseline behaviors of spontaneous flinching/guarding were recorded. Flinching was characterized by the lifting and rapid flexing of the hind paw ipsilateral to femoral inoculation when not associated with walking or other movement. Guarding was characterized by the lifting the inoculated hind limb into a fully retracted position under the torso. The total number of flinches and the time spent guarding 2 min duration was recorded. […] Antagonists were administered 30 minutes prior to Ang-(1-7). Following administration, animals were tested at over a three-hour time course until their pain behaviors returned to baseline

[4] = mouse, serum
Experimental: as §1

[5] = In vivo serum and CSF concentration after subcutaneous injection
Experimental: The peptides (10 mg/kg) or vehicle control were individually subcutaneously injected into naïve mice. Serum concentrations were determined every 10 minutes by HPLC-MS using a 20-30 μl blood sample. […] CSF samples were simultaneously withdrawn from the same animals via a microdialysis probe and assayed for the peptide concentration and corrected for basal CSF levels.

[6] = system: human umbilical vascular endothelial cells (HUVEC); experiment: xCELLigence RTCA cell activation (cell impedance); assay type: cell-based
Source text: Cell culture. To isolate primary hippocampal CA1 neuronal cells, whole brain was removed from neonatal rat pups (1-2 day old) and the cortices dissected away. The hippocampus was isolated and the CA1 field was excised and placed in buffer. After gentle disruption in digestion buffer, the cells were counted, placed in culture media, and plated in a 96-well format coated with poly-d-lysine. At the time of plating, cells were approximately at 50% density and were allowed to culture to 70-80% density before starting the assay. Commercially available HUVEC (Life Technologies/Thermo Fisher) was thawed and plated (5000-10,000 cells/well) in a 96-well format coated with gelatin. HUVEC cells were allowed to culture overnight before starting the assay.
Cell Activation: The xCELLigence system Real-Time Cell Analyzer (RTCA), developed by Roche Applied Science, uses microelectronic biosensor technology to do dynamic, real-time, label-free, and non-invasive analysis of cellular events including G-protein receptor activation of cells. The RTCA analysis was utilized to measure the potency and relative ability of oligopeptides of the invention and native Ang-(1-7) to activate human umbilical vascular endothelial cells (HUVEC) in culture. Following uniform cellular adherence based on a linear increase in cell impedance (CI), HUVECs were treated with Ang-(1-7) and oligopeptides of the invention. Each trace of the CI over time in FIG. 1 represents the average of 4 wells normalized to CI at the time of compound addition.

[7] = system: human umbilical vascular endothelial cells (HUVEC); experiment: NO production assay (DAF-FM fluorescence, microplate reader); assay type: cell-based; conditions: 5 minutes exposure
Experimental: NO production assay. As a screen for mechanisms of action of oligopeptides of the invention, the ability to increase NO production of three oligopeptides of the invention (PN-A3, PN-A4 and PN-A5) were characterized and compared to native Ang-(1-7). Human umbilical vascular endothelial cells (HUVEC) culture plates received fluorescence reaction buffer (0.2 M phosphate buffer, pH 7, 1 mM EDTA, 0.1% glucose) containing diaminofluorescein-FM diacetate (DAF-FM, 1 μM) to measure real-time NO production. Time-resolved (10 minutes) fluorescent intensity was detected using a BioTek Synergy 2 microplate reader with excitation at 485 nm and emission at 535 nm. DAF-FM is a sensitive flourometric derivative for the selective detection of NO in live cells.
Values were normalized to control fluorescence.

Compound: CC[C@H](C)[C@H](NC(=O)[C@H](Cc1ccc(O)cc1)NC(=O)[C@@H](NC(=O)[C@H](CCCNC(=N)N)NC(=O)[C@@H](N)CC(=O)O)C(C)C)C(=O)N[C@@H](Cc1c[nH]cn1)C(=O)N[C@@H](CO[C@@H]1O[C@H](CO)[C@@H](O[C@@H]2O[C@H](CO)[C@H](O)[C@H](O)[C@H]2O)[C@H](O)[C@H]1O)C(N)=O [Ang 1-6-Ser(OLac)-NH2] (H-DRVYIHS(X2)-NH2)
half-life [1]: 348 min

Compound: CC[C@H](C)[C@H](NC(=O)[C@H](Cc1ccc(O)cc1)NC(=O)[C@@H](NC(=O)[C@H](CCCNC(=N)N)NC(=O)[C@@H](N)CC(=O)O)C(C)C)C(=O)N[C@@H](Cc1c[nH]cn1)C(=O)N1CCC[C@H]1C(=O)O [Ang-(1-7), Asp-Arg-Val-Tyr-Ile-His-Pro]
rotarod latencies versus vehicle [2]: No significant differences in rotarod latencies

Compound: CCCCc1nc(Cl)c(CO)n1Cc1ccc(-c2ccccc2-c2nn[nH]n2)cc1 [Losartan potassium]
pain behaviors, AT1 or AT2 antagonist administered alone [3]: neither Losartan potassium nor PD 123319 significantly altered pain behaviors | MPE in reducing flinching ([3]; Losartan potassium 0.4 mg/kg i.p. 30 minutes prior to Ang-(1-7) 0.058 μg/kg, 15 minutes post-administration): 80.56% | maximal possible efficacy (MPE) in reducing guarding ([3]; Losartan potassium 0.4 mg/kg i.p. 30 minutes prior to Ang-(1-7) 0.058 μg/kg, 30 minutes post-administration): 77.527%

Compound: Cc1cc(Cn2cnc3c2C[C@@H](C(=O)O)N(C(=O)C(c2ccccc2)c2ccccc2)C3)ccc1N(C)C [PD 123319]
pain behaviors, AT1 or AT2 antagonist administered alone [3]: neither Losartan potassium nor PD 123319 significantly altered pain behaviors | guarding or flinching versus Ang-(1-7) alone ([3]; PD 123319 0.4 mg/kg i.p. 30 minutes prior to Ang-(1-7) 0.058 μg/kg): did not further increase nor decrease guarding or flinching

half-life [4]: 60 min | maximum CSF concentration ([5]; 10 mg/kg subcutaneous, naïve mice, microdialysis, corrected for basal CSF levels): about 400 nM | Cmax ([5]; mouse, serum, sc, 10 mg/kg): ~3.5 µM
Compound: CC[C@H](C)[C@H](NC(=O)[C@H](Cc1ccc(O)cc1)NC(=O)[C@@H](NC(=O)[C@H](CCCNC(=N)N)NC(=O)[C@@H](N)CC(=O)O)C(C)C)C(=O)N[C@@H](Cc1c[nH]cn1)C(=O)N[C@@H](COC1O[C@H](CO)[C@@H](O)[C@H](O)[C@H]1O)C(N)=O (stereo partly drawn) [PN-A5, Ang 1-6-Ser(OGlc)-NH2] (H-DRVYIHS(X1)-NH2)

Compound: PN-A3: Asp Arg Val Tyr Ile His Pro Ser* (glucosylated), carboxyl terminal NH2 (SEQ ID NO: 8) (DRVYIHPS; glucosylated; C-terminal amide; MOD_RES (8)..(8) Glucosylated-Ser; C-term -NH2)
increase in cell impedance (CI) over the native Ang-(1-7) ([6]; 10 nM): ~2 fold | increase in cell impedance (CI) over the native Ang-(1-7) ([6]; 100 nM): ~2 fold | NO production versus control levels (relative peak fluorescence intensity) [7]: significant elevation of NO over control levels

Compound: PN-A4: Asp Arg Val Tyr Ile His Pro Ser** (lactosylated), carboxyl terminal NH2 (SEQ ID NO: 9) (DRVYIHPS; lactosylated; C-terminal amide; MOD_RES (8)..(8) Lactosylated-Ser; C-term -NH2)
increase in cell impedance (CI) over the native Ang-(1-7) ([6]; 100 nM): ~2 fold | NO production versus control levels (relative peak fluorescence intensity) [7]: significant elevation of NO over control levels
